Data: patent US20260256751A1, “COMBINATION OF BETA-2-ADRENERGIC RECEPTOR AGONISTS AND GLP-1 RECEPTOR AGONISTS FOR USE IN TREATING HYPERGLYCAEMIA” (ATROGI AB, priority 2023, published 2026)

Assays:
[1] = tested on: differentiated L6-myotubes; assay: Glucose uptake screen (Biological example 1 of WO 2019/053427); assay type: cell-based; conditions: compound at 10 μM, activity relative to isoproterenol at 10 μM, read-out: Biological example 1 of WO 2019/053427 (GU)
Summary of the method: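 Rat L6 myoblasts were differentiated into myotubes over 7 days in 2% FBS, then serum-starved overnight. Cells were stimulated with 1×10^−5 M compound plus β2 antagonist ICI-118551 for 1 h 40 min and re-dosed for 20 min in glucose-free medium. Uptake of 50 nM ^3H-2-deoxyglucose over 10 min was counted after NaOH lysis.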

[2] = tested on: differentiated L6-myotubes; assay: cAMP production relative to isoprenaline (Biological example 2 of WO 2019/053427); assay type: cell-based; conditions: 0.25 h, compound at 10 μM, activity relative to isoproterenol at 10 μM
Summary of the method: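 Differentiated L6 myotubes stimulated 15 min with test compound or isoprenaline, each at final 1×10^−5 M, in HBSS with 1% BSA, 5 mM HEPES, 1 mM IBMX, pH 7.4. cAMP production by the compound expressed relative to that induced by the same concentration of isoprenaline.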

In the case of `COC(=O)[C@H]1CC[C@H](C(C)(C)NC[C@H](O)c2cncc(F)c2)CC1` [Compound 370, (1R,4r)-8-[(R)-2-(5-fluoro-3-pyridyl)-2-hydroxyethylamino]-7-methoxy-p-menthan-7-one], the Emax at 10 µM [1] is reported as > 75% and the Emax at 10 µM [2] is reported as < 25%.
With `CS(=O)(=O)N[C@H]1CC[C@@H](CNC[C@H](O)c2cccc(F)c2)CC1` [Compound 312, (R)-1-(m-fluorophenyl)-2-({[(1s,4S)-4-(mesylamino)cyclohexyl]methyl}amino)-1-ethanol] the Emax at 10 µM [1] was 50 to 75% and the Emax at 10 µM [2] was < 25%.
For `CC(C)(C[C@H]1CC[C@H](NC(=O)C2CC2)CC1)NC[C@H](O)c1cccc(F)c1` [Compound 432, N-[(1R,4r)-4-{2-[(R)-2-(m-fluorophenyl)-2-hydroxyethylamino]-2-methylpropyl}cyclohexyl]cyclopropanecarboxmaide], the Emax at 10 µM [1] was > 75% and the Emax at 10 µM [2] was > 75%.
In the case of `CCCC(C)NCC(O)c1cc(Cl)c(O)c(Cl)c1` (centres unmarked) [Compound 25, 1-(3,5-dichloro-4-hydroxyphenyl)-2-(1-methylbutylamino)-1-ethanol], the Emax at 10 µM [1] is reported as < 25% and the Emax at 10 µM [2] is reported as < 25%.
`CC(C)(C[C@H]1CC[C@@H](S(N)(=O)=O)CC1)NC[C@H](O)c1cccc(F)c1` [Compound 517, (1S,4s)-4-{2-[(R)-2-(m-fluorophenyl)-2-hydroxyethylamino]-2-methylpropyl}cyclohexanesulfonamide] was tested, and the Emax at 10 µM [1] was 25 to 50% and the Emax at 10 µM [2] was < 25%.
`CC(C)(C[C@H]1CC[C@H](N)CC1)NC[C@H](O)c1cncc(F)c1` [Compound 359, (R)-2-{1,1-dimethyl-2-[(1r,4R)-4-aminocyclohexyl]ethylamino}-1-(5-fluoro-3-pyridyl)-1-ethanol] was tested, and the Emax at 10 µM [1] was > 75% and the Emax at 10 µM [2] was < 25%.
In the case of `CCC[C@H]1CCC[C@H]([C@@H](O)c2cccc(Cl)c2)N1` [Compound 129, (S)-[(2R,6S)-6-propyl-2-piperidyl](m-chlorophenyl)methanol], the Emax at 10 µM [1] is reported as 25 to 50% and the Emax at 10 µM [2] is reported as < 25%.
In the case of `Oc1ccc(C(O)CNCC2CC2)cc1` (centres unmarked) [Compound 3, p-{2-[(cyclopropylmethyl)ami-no]-1-hydroxyethyl}phenol], the Emax at 10 µM [1] is reported as 50 to 75% and the Emax at 10 µM [2] is reported as < 25%.
With `CCC[C@@H]1CC[C@H]([C@H](O)c2ccccc2Cl)N1` [Compound 148, (R)-[(2R,5R)-5-propyl-2-pyrrolidinyl](o-chlorophenyl)methanol] the Emax at 10 µM [1] was > 75% and the Emax at 10 µM [2] was < 25%.
`CC(=O)N(C)[C@H]1CC[C@H](CC(C)(C)NC[C@H](O)c2cncc(F)c2)CC1` [Compound 506, N-[(1R,4r)-4-{2-[(R)-2-(5-fluoro-3-pyridyl)-2-hydroxyethylamino]-2-methylpropyl}cyclohexyl]-N-methylacetamide] was tested, and the Emax at 10 µM [1] was > 75% and the Emax at 10 µM [2] was 25 to 50%.
With `CC(C)(C)NC[C@H](O)c1ccc(F)c(N)c1F` [Compound 149, (R)-1-(3-amino-2,4-difluorophenyl)-2-(tert-butylamino)-1-ethanol] the Emax at 10 µM [1] was > 75% and the Emax at 10 µM [2] was 25 to 50%.
In the case of `CC(C)(C)NC[C@H](O)c1ccccc1F` [Compound 78, (R)-2-(tert-butylamino)-1-(o-fluorophenyl)-1-ethanol], the Emax at 10 µM [1] is reported as > 75% and the Emax at 10 µM [2] is reported as 25 to 50%.
For `O[C@H](c1ccccc1F)C12CCC(CCc3cccnc3)(CC1)N2` [Compound 444, (R)-(o-fluorophenyl){4-[2-(3-pyridyl)ethyl]-7-azabicyclo[2.2.1]hept-1-yl}methanol], the Emax at 10 µM [1] was > 75% and the Emax at 10 µM [2] was 50 to 75%.
For `CCC[C@H]1CC[C@H]([C@H](O)c2cccc(O)c2)N1` [Compound 125, m-{(R)-[(2R,5S)-5-propyl-2-pyrrolidinyl]hydroxymeth-yl}phenol], the Emax at 10 µM [1] was 50 to 75% and the Emax at 10 µM [2] was < 25%.
`CCCCNCC(O)c1cc(Cl)c(N)c(C(F)(F)F)c1` (centres unmarked) [Compound 32, 1-[4-amino-3-chloro-5-(trifluoromethyl)phenyl]-2-(butylamino)-1-ethanol] was tested, and the Emax at 10 µM [1] was > 75% and the Emax at 10 µM [2] was 25 to 50%.
With `CS(=O)(=O)N(Cc1ccccc1)[C@H]1CC[C@H](C[C@@H]2CC[C@H]([C@@H](O)c3cccc(F)c3)N2)CC1` [Compound 503, (S)-[(2R,5S)-5-({(1r,4S)-4-[(benzyl)-N-mesylamino]cyclohexyl}methyl)-2-pyrrolidinyl](m-fluorophenyl)methanol] the Emax at 10 µM [1] was < 25% and the Emax at 10 µM [2] was < 25%.
`CC(C)(CC[C@H]1CC[C@@H](C(=O)O)CC1)NC[C@H](O)c1cccc(F)c1` [Compound 352, (1S,4s)-4-{3-[(R)-2-(m-fluorophenyl)-2-hydroxyethylamino]-3-methylbutyl}cyclohexanecarboxylc acid] was tested, and the Emax at 10 µM [1] was 25 to 50% and the Emax at 10 µM [2] was < 25%.
For `O[C@H](c1cncc(F)c1)[C@H]1CC[C@@H](Cc2ccc(Cl)cc2)N1` [Compound 404, (R)-{(2R,5S)-5-[(p-chlorophenyl)methyl]-2-pyrrolidinyl}(5-fluoro-3-pyridyl)methanol], the Emax at 10 µM [1] was > 75% and the Emax at 10 µM [2] was < 25%.
With `CC1(C)CC[C@H]([C@@H](O)c2cccc(Cl)c2)N1` [Compound 153, (S)-[(R)-5,5-dimethyl-2-pyrrolidinyl](m-chlorophenyl)methanol] the Emax at 10 µM [1] was 25 to 50% and the Emax at 10 µM [2] was < 25%.
In the case of `CC(C)(NC[C@H](O)c1cccc(F)c1)[C@H]1CC[C@H](O)CC1` [Compound 283, (R)-1-(m-fluorophenyl)-2-{1-methyl-1-[(1r,4R)-4-hydroxycyclohexyl]ethyl-amino}-1-ethanol], the Emax at 10 µM [1] is reported as 50 to 75% and the Emax at 10 µM [2] is reported as < 25%.
`CCC[C@@H]1CC[C@H]([C@@H](O)c2cccc(O)c2)N1` [Compound 127, m-{(S)-[(2R,5R)-5-propyl-2-pyrrolidinyl]hydroxymeth-yl}phenol] was tested, and the Emax at 10 µM [1] was 25 to 50% and the Emax at 10 µM [2] was < 25%.
With `CC1(NC[C@H](O)c2cccc(F)c2)CC1` [Compound 82, (R)-1-(m-fluorophenyl)-2-(1-methylcyclopropylamino)-1-ethanol] the Emax at 10 µM [1] was > 75% and the Emax at 10 µM [2] was < 25%.
With `CC12CCC([C@H](O)c3ccccc3Cl)(CC1)N2` [Compound 195, (R)-(o-chlorophenyl)(4-methyl-7-azabicyclo[2.2.1]hept-1-yl)methanol] the Emax at 10 µM [1] was > 75% and the Emax at 10 µM [2] was < 25%.
For `CC(C)(C[C@H]1CC[C@@H](N)CC1)NC[C@H](O)c1cccc(F)c1` [Compound 456, (R)-2-{1,1-dimethyl-2-[(1s,4S)-4-aminocyclohexyl]ethylamino}-1-(m-fluorophenyl)-1-ethanol], the Emax at 10 µM [1] was > 75% and the Emax at 10 µM [2] was < 25%.
For `CCCCNC[C@H](O)c1ccc(F)cc1` [Compound 46, (R)-2-(butylamino)-1-(p-fluorophenyl)-1-ethanol], the Emax at 10 µM [1] was 50 to 75% and the Emax at 10 µM [2] was < 25%.
`CCC[C@H]1CCC[C@H]([C@@H](O)c2cc(F)cc(F)c2)N1` [Compound 66, (S)-[(2R,6S)-6-propyl-2-piperidyl](3,5-difluorophenyl)methanol] was tested, and the Emax at 10 µM [1] was 25 to 50% and the Emax at 10 µM [2] was < 25%.
In the case of `O[C@H](c1cncc(F)c1)C12CCC(C/C=C/c3ccccc3)(CC1)N2` [Compound 530], the Emax at 10 µM [1] is reported as > 75% and the Emax at 10 µM [2] is reported as 25 to 50%.
In the case of `CC(C)(C[C@H]1CC[C@H](C(=O)O)CC1)NC[C@H](O)c1cccc(F)c1` [Compound 355, (1R,4r)-4-{2-[(R)-2-(m-fluorophenyl)-2-hydroxyethylamino]-2-methylpropyl}cyclohexanecarboxylic acid], the Emax at 10 µM [1] is reported as 50 to 75% and the Emax at 10 µM [2] is reported as < 25%.
In the case of `CC1(C)CCC[C@H]([C@H](O)c2cccc(O)c2)N1` [Compound 104, (R)-[(R)-6,6-dimethyl-2-piperidyl](m-hydroxyphenyl)methanol], the Emax at 10 µM [1] is reported as 25 to 50% and the Emax at 10 µM [2] is reported as < 25%.
`CCC[C@H]1CCC[C@H]([C@H](O)c2cccc(F)c2)N1` [Compound 69, (R)-[(2R,6S)-6-propyl-2-piperidyl](m-fluorophenyl)methanol] was tested, and the Emax at 10 µM [1] was 50 to 75% and the Emax at 10 µM [2] was < 25%.
For `CC(C)(C[C@H]1CC[C@@H](C(=O)O)CC1)NC[C@H](O)c1cncc(F)c1` [Compound 324, (1S,4s)-4-{2-[(R)-2-(5-fluoro-3-pyridyl)-2-hydroxyethylamino]-2-methylpropyl}cyclohexanecarboxylic acid], the Emax at 10 µM [1] was 25 to 50% and the Emax at 10 µM [2] was < 25%.
With `CC(C)(C[C@H]1CC[C@@H](NC(=O)OC(C)(C)C)CC1)NC[C@H](O)c1cccc(F)c1` [Compound 449] the Emax at 10 µM [1] was 50 to 75% and the Emax at 10 µM [2] was < 25%.
For `CC(C)(C[C@H]1CC[C@@H](NS(=O)(=O)C(F)(F)F)CC1)NC[C@H](O)c1cccc(F)c1` [Compound 493, (R)-2-{1,1-dimethyl-2-[(1s,4S)-4-(trifluoromesylamino)cyclohexyl]ethylamino}-1-(m-fluorophenyl)-1-ethanol], the Emax at 10 µM [1] was 25 to 50% and the Emax at 10 µM [2] was < 25%.
`CO[C@H]1CC[C@@H](CNC[C@H](O)c2cccc(F)c2)CC1` [Compound 245, (R)-1-(m-fluorophenyl)-2-({[(1s,4S)-4-methoxycyclohexyl]meth-yl}amino)-1-ethanol] was tested, and the Emax at 10 µM [1] was 50 to 75% and the Emax at 10 µM [2] was < 25%.
`CCCC(C)NCC(O)c1cccc(O)c1` (centres unmarked) [Compound 14, 1-(m-hydroxyphenyl)-2-(1-methylbutylamino)-1-ethanol] was tested, and the Emax at 10 µM [1] was > 75% and the Emax at 10 µM [2] was < 25%.
In the case of `CC(C)(C)NC[C@H](O)c1ccncc1F` [Compound 108, (R)-2-(tert-butylamino)-1-(3-fluoro-4-pyridyl)-1-ethanol], the Emax at 10 µM [1] is reported as 25 to 50% and the Emax at 10 µM [2] is reported as < 25%.
With `CS(=O)(=O)N(Cc1ccccc1)c1ccc(CC23CCC([C@H](O)c4cccc(F)c4)(CC2)N3)cc1` [Compound 473, (R)-[4-({p-[(benzyl)-N-mesylamino]phenyl}methyl)-7-azabicyclo[2.2.1]hept-1-yl](m-fluorophenyl)methanol] the Emax at 10 µM [1] was 25 to 50% and the Emax at 10 µM [2] was < 25%.
